Laboratory results reported in EP0010299A1, “Pharmaceutical composition useful for the treatment of hypercholesteremia” (Merck & Co., Inc., priority 1978, dated 1980).
Values joined by “and” are separate entries in the source; they are usually repeats but may differ in a detail not shown here. Identical values can stand only once.

How the values were obtained:
HMG-CoA reductase [1] = details: fed rats three hours following the administration; Bensch et al. 1978; cited from earlier work
plasma cholesterol = test: Combination of compound (II) with cholestyramine in dogs, plasma cholesterol; format: in vivo, Male beagles
Method: Male beagles, ranging in weight from 7 to 14 kg. (average 11 kg.), were fed a semi-synthetic diet six weeks prior to the start of the experiment and serum cholesterol levels determined colorimetrically each week in order to obtain base-line values for each dog. At the start of the treatment, animals were divided into three treatment groups. Group A (4 dogs) received 25 mg./kg./day of compound (II) mixed in the diet. Group B (4 dogs) received 12 g./dog/day of cholestyramine mixed' in the diet. Group C (5 dogs) was the untreated control. Treatment was for four weeks, and plasma cholesterol was determined two times per week. After four weeks a combination of compound (II) and cholestyramine was given to dogs in Groups A and B mixed in the diet at 25 mg./kg. and 12 g./dog/day respectively for an additional four weeks. Cholesterol levels were detorminod two times per week during this period.

serum sterol levels = details: Bensch et al. 1978, cited from earlier work
serum cholesterol = details: acutely treated rat; Endo et al. 1976; cited from earlier work
HMG-CoA reductase [2] = molecular target: T1, HMG-CoA reductase (Rattus norvegicus, UniProt P51639); details: reductase enzyme; no unit printed (molar concentration); read-out: ED50 in the inhibition test; cited from earlier work
T1 sequence (P51639 1-887): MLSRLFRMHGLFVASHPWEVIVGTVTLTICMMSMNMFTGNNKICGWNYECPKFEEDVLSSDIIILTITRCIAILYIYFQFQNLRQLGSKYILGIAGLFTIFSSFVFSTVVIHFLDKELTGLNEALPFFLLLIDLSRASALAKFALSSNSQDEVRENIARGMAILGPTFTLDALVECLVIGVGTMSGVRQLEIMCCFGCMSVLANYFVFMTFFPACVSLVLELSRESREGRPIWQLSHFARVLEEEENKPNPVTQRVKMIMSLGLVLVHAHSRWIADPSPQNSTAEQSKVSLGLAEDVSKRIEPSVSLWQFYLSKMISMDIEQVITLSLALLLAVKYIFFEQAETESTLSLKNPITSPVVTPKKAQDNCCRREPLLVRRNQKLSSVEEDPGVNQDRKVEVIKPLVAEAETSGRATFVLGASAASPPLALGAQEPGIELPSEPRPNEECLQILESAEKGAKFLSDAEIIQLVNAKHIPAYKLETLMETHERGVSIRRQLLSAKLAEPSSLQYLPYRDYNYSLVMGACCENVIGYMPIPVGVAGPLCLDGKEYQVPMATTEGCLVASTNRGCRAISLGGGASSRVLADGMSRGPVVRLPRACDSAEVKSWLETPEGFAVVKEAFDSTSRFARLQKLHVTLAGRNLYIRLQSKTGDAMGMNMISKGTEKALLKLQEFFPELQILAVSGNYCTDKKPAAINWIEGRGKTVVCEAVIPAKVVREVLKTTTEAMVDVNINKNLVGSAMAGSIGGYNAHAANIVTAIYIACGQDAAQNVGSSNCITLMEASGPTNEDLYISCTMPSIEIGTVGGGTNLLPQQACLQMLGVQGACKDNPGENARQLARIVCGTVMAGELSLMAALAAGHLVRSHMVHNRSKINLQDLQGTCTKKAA

[3] = Group A average (4 dogs), compound (II) 25 mg./kg./day mixed in the diet, 4 weeks
[4] = Group A, individual dogs, compound (II) 25 mg./kg./day mixed in the diet, 4 weeks

SMILES: CCC(C)C(=O)OC1CCC=C2C=CC(C)C(CCC3CC(O)CC(=O)O3)C21 (centres unmarked) [compound (II), 1,2,3,7,8,8a-hexahydro-7-methyl-8-[2-(3,4,5,6-tetra-hydro-4-hydroxy-6-oxo-2H-pyran-2-yl]ethyl)-1-naphthyl 2-methyl butanoate]
- HMG-CoA reductase (HMG-CoA reductase [1]): marked increase
- reduction in plasma cholesterol level plateauing by four weeks (plasma cholesterol; Fig. 1, Group A, 25 mg./kg./day of compound (II)): 36 % of control
- PLASMA CHOLESTEROL, 4 Weeks, % change from Start, average (plasma cholesterol; [3]): -35.6%
- PLASMA CHOLESTEROL, 4 Weeks, average (plasma cholesterol; [3]): 82.5 mg/dL
- PLASMA CHOLESTEROL, 4 Weeks (plasma cholesterol; [4]): 76 mg./dl and 70 mg./dl and 92 mg./dl (2×)
- PLASMA CHOLESTEROL, 4 Weeks, % change from Start (plasma cholesterol; [4]): -36.7% and -30.7% and -40.4% and -34.3%
- decrease of plasma cholesterol, average (plasma cholesterol; four weeks single agent in the diet: compound (II) 25 mg./kg. (Group A), cholestyramine 12 g./dog/day (Group B)): 35.6%
- liver or liver microsomal cholesterol concentration (serum sterol levels): no change
- effect on serum sterol levels (serum sterol levels; compared with fed or fasted controls): no effect
- serum cholesterol levels (serum cholesterol): reduced
- IC50 (HMG-CoA reductase [2]): ~0.01 µM
